Laboratory results reported in a compilation of properties of binary mixtures (doi:10.1016/j.jct.2017.08.033).

Test: xn = mol fraction of the nth substance listed
Conditions: 101 kPa

O=S(=O)([N-]S(=O)(=O)C(F)(F)F)C(F)(F)F.[Li+] + CC[n+]1ccn(C)c1.O=S(=O)([N-]S(=O)(=O)C(F)(F)F)C(F)(F)F
viscosity [mPa·s]
Conditions | 298.15 K | 313.15 K | 328.15 K | 343.15 K | 358.15 K
x2 = 0.6 | 588 | 225 | 108.2 | 60.8 | 38.3
x2 = 0.7 | 183 | 86.6 | 47.6 | 29.6 | 20.1
x2 = 0.8 | – | 47.5 | 28.5 | 18.8 | –
x2 = 0.9 | 46.6 | 27.4 | 17.8 | 12.42 | 9.08
x2 = 0.95 | 37.4 | 22.7 | 15.1 | 10.69 | 7.96

CC[n+]1ccn(C)c1.O=S(=O)([N-]S(=O)(=O)C(F)(F)F)C(F)(F)F + O=S(=O)([N-]S(=O)(=O)C(F)(F)F)C(F)(F)F.[Li+]
x1 = 1
Conditions | viscosity [mPa·s]
298.15 K | 30.7
328.15 K | 13.1
358.15 K | 7.12
